In patent US20260356851A1, “TRICYCLIC COMPOUNDS AND USES THEREOF” (HUTCHMED LIMITED, priority 2023, published 2026):

Experiments:
Assay type in all cases: cell-based
[1] = target: T1, pERK1/2 (Thr202/Tyr204), NCI-1H358 (KRAS G12C) (Homo sapiens, UniProt P01116, G12C); experiment: Assay of intracellular pERK1/2 (Thr202/Tyr204) phosphorylation in NCI-H358 cells (KRAS G12C); conditions: pERK1/2, 2 days, read-out: NCI-H358 (KRAS G12C) IC50
T1 construct: pERK1/2 HTRF read-out
Description: (§1) Example 2: Assay of intracellular pERK1/2 (Thr202/Tyr204)phosphorylation
(§2) 1. Reagents and materials: • pERK1/2 (Thr202/Tyr2O4) HIRE kit, Cisbio, Cat #64ERKPEH; • OptiPlate™-384-well plate, PerkinElmer, Cat #6007299; • 96-well plate, Coming, Cat #353072; • Instrument: EnVision2104, PerkinElmer; • Cell lines: NCI-1H358 (KRAS G12C), ATCC, CRL-5807; PANC-1 (KRAS G121D), ATCC, CRL-1469; NCI-1H441 (KRAS G12V), ATCC, HTB-174.
(§3) 2. Preparation of Reaction Solutions
(§4) • A test compound was dissolved in DMSO, diluted to 200.0 μM and further diluted 3-fold to prepare a series of test compounds at concentrations of 66.7, 22.2, 7.4, 2.5, 0.82, 0.27, 0.09 μM etc. Then 10 μL of the compound at different dilution concentrations was added to 190 μL of a DMEM medium to prepare a 10× test compound; • 1× cell lysis buffer: 4× cell lysis stock solution (provided by the kit) was diluted 4-fold with deionized water, and then 10% 100× blocking stock solution (provided by the kit) was added thereto. • pERK1/2 detection solution (prepared just before use): the pERK1/2 d2 antibody (provided by the kit) and pERK1/2 Cryptate antibody (provided by the kit) were diluted with the detection solution (provided by the kit) at a ratio of 1:1:38.
(§5) • Cells were inoculated into a 96-well plate (100 μL/well) at a density of 10000-12000/well. No cell was inoculated into a negative control well, and only the cell medium was added at 100 μL/well. The plate was placed in a cell incubator at 5% CO2 and 37° C. overnight. • 10 μL of the 10× test compound was added to the 100 μL cell culture 96-well plate; both the positive control well (that is, the control hole without chemical compound treatment) and the negative control well were charged with 10 μL of a 5% DMSO culture solution; and the plate was cultured in a cell incubator at 5% CO2 and 37° C. for 2 days. • The medium in the 96-well plate was removed; 50 μL of the 1× cell lysis buffer was added to each of the wells; the plate was placed in a microplate shaker; and lysis under shaking was carried out at 900 rpm at room temperature for 1 hour. • 16 μL of the lysis buffer in the 96-well plate was taken and transferred to a 384-well plate, followed by centrifugation at 1000 rpm for 30 s; then 4 μL of pERK1/2 detection solution was added to each well, followed by centrifugation at 1000 rpm for 30 s; and the 384-well plate was sealed with a sealing membrane and incubated at 25° C. on a low-speed shaker at 100 rpm in the dark for 2 hours. • The fluorescence value (RFU) of each well was detected on EnVision2104, with an emission wavelength 1 being 665 nm and an emission wavelength 2 being 615 nm.
(§6) Fluorescence ratio=fluorescence value665 nm/fluorescence value615 nm
(§7) Inhibition rate (%)=100−((fluorescence ratio of compound well−fluorescence ratio of negative control well)/(fluorescence ratio of positive control well−fluorescence ratio of negative control well))×100
(§8) wherein: • the fluorescence ratio of compound well refers to the fluorescence ratio of the well containing the test compounds; • the fluorescence ratio of negative control well refers to the fluorescence ratio of the cell-free control well; • the fluorescence ratio of positive control well refers to the fluorescence ratio of the cell well treated with 0.5% DMSO.
(§9) IC50 value: obtained by calculation using XL-Fit 5.0 software.

[2] = target: T2, pERK1/2 (Thr202/Tyr204), NCI-1H441 (KRAS G12V) (Homo sapiens, UniProt P01116, G12V); experiment: Assay of intracellular pERK1/2 (Thr202/Tyr204) phosphorylation in NCI-H441 cells (KRAS G12V); conditions: pERK1/2, 2 days, read-out: NCI-H441 (KRAS G12V) IC50
T2 construct: pERK1/2 HTRF read-out
T2 sequence (P01116 1-188 isoform P01116-2 G12V): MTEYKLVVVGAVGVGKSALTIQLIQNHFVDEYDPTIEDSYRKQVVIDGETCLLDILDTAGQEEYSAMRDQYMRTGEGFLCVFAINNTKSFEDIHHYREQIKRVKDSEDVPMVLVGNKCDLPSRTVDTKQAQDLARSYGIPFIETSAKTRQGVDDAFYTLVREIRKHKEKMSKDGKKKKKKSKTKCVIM
Description: as §1, §2, §3, §4, §5, §6, §7, §8, §9

[3] = target: T3, pERK1/2 (Thr202/Tyr204), PANC-1 (KRAS G121D) (Homo sapiens, UniProt P01116, G12D); experiment: Assay of intracellular pERK1/2 (Thr202/Tyr204) phosphorylation in PANC-1 cells (KRAS G12D); conditions: pERK1/2, 2 days, read-out: PANC-1 (KRAS G12D) IC50
T3 construct: pERK1/2 HTRF read-out
T3 sequence (P01116 1-188 isoform P01116-2 G12D): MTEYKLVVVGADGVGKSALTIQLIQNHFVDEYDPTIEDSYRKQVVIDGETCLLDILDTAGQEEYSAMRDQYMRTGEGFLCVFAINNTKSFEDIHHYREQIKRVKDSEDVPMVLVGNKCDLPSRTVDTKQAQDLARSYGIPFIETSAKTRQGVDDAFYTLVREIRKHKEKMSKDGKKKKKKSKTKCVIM
Description: as §1, §2, §3, §4, §5, §6, §7, §8, §9

T1 sequence (P01116 1-188 isoform P01116-2 G12C): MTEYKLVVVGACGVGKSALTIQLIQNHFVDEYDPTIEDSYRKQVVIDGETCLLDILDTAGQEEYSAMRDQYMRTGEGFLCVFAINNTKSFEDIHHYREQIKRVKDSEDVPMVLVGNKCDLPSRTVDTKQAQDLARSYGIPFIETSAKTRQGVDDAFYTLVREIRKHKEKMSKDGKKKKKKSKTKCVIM

Row | Compound | IC50 [1] [nM] | IC50 [2] [nM] | IC50 [3] [nM]
1 | C[C@H](c1cccnc1N)N1CCOc2nc(-c3cc(O)cc(Cl)c3C3CC3)c(F)c3nc(OC[C@@H]4CCN4CC(F)F)nc1c23 (single isomer, unassigned) [Compound 20, 3-(10-((R or S)-1-(2-aminopyridin-3-yl)ethyl)-2-(((S)-1-(2,2-difluoroethyl)azetidin-2-yl)methoxy)-4-fluoro-9,10-dihydro-8H-7-oxa-1,3,6,10-tetraazacyclohepta[de]naphthalen-5-yl)-5-chloro-4-cyclopropylphenol] | 783 | > 1000 | > 1000
2 | CC(c1cccnc1N)N1CCOc2nc(-c3cc(O)cc(F)c3C3CC3)c(F)c3nc(OC[C@@H]4CCN4CC(F)F)nc1c23 (single isomer, unassigned) [Compound 23, 3-(10-((R or S)-1-(2-aminopyridin-3-yl)ethyl)-2-(((S)-1-(2,2-difluoroethyl)azetidin-2-yl)methoxy)-4-fluoro-9,10-dihydro-8H-7-oxa-1,3,6,10-tetraazacyclohepta[de]naphthalen-5-yl)-4-cyclopropyl-5-fluorophenol] | > 1000 | > 1000 | > 1000
3 | C[C@@H](c1cccnc1N)N1CCOc2nc(-c3c(C(F)(F)F)ccc4[nH]ncc34)c(F)c3nc(OC[C@@]45CCCN4C[C@H](F)C5)nc1c23 (single isomer, unassigned) [Compound 27, 3-((1R or 1S)-1-(4-fluoro-2-(((2R,7aS)-2-fluorotetrahydro-1H-pyrrolizin-7a(5H)-yl)methoxy)-5-(5-(trifluoromethyl)-1H-indazol-4-yl)-8,9-dihydro-10H-7-oxa-1,3,6,10-tetraazacyclohepta[de]naphthalen-10-yl)ethyl)pyridin-2-amine] | 2 | 11 | 106
4 | CC(c1cccnc1N)N1CCOc2nc(-c3cc(O)cc4ccc(F)c(F)c34)c(F)c3ncnc1c23 (single isomer, unassigned) [Compound 29, (R or S)-4-(10-(1-(2-aminopyridin-3-yl)ethyl)-4-fluoro-9,10-dihydro-8H-7-oxa-1,3,6,10-tetraazacyclohepta[de]naphthalen-5-yl)-5,6-difluoronaphthalen-2-ol] | > 1000 | > 1000 | > 1000
5 | CC(c1cccnc1N)N1CCOc2nc(-c3cc(O)cc4ccc(F)c(F)c34)c(F)c3ncnc1c23 (single isomer, unassigned) [Compound 30, (R or S)-4-(10-(1-(2-aminopyridin-3-yl)ethyl)-4-fluoro-9,10-dihydro-8H-7-oxa-1,3,6,10-tetraazacyclohepta[de]naphthalen-5-yl)-5,6-difluoronaphthalen-2-ol] | 31 | 64 | > 1000
6 | CC(c1cccnc1N)N1CCOc2nc(-c3cc(O)cc(F)c3C3CC3)c(F)c3nc(OC[C@@H]4CCCN4C)nc1c23 (single isomer, unassigned) [Compound 34, 3-(10-((R or S)-1-(2-aminopyridin-3-yl)ethyl)-4-fluoro-2-(((S)-1-methylpyrrolidin-2-yl)methoxy)-9,10-dihydro-8H-7-oxa-1,3,6,10-tetraazacyclohepta[de]naphthalen-5-yl)-4-cyclopropyl-5-fluorophenol] | > 1000 | > 1000 | > 1000
7 | Cc1ccc(C(C)N2CCOc3nc(-c4cc(N)c(F)c(C)c4C(F)(F)F)c(F)c4nc(OC[C@@]56CCCN5C[C@H](F)C6)nc2c34)c(N)n1 (single isomer, unassigned) [Compound 252, 3-((R or S)-1-(5-(5-amino-4-fluoro-3-methyl-2-(trifluoromethyl)phenyl)-4-fluoro-2-(((2R,7aS)-2-fluorotetrahydro-1H-pyrrolizin-7a(5H)-yl)methoxy)-8,9-dihydro-10H-7-oxa-1,3,6,10-tetraazacyclohepta[de]naphthalen-10-yl)ethyl)-6-methylpyridin-2-amine] | > 100 | – | –

Further lines, results first:

Row | IC50 [1] [nM] | IC50 [2] [nM] | IC50 [3] [nM] | Compound
8 | 0.5 | 3 | 82 | CC(c1cccnc1N)N1CCOc2nc(-c3cc(O)cc(Cl)c3C3CC3)c(F)c3nc(OC[C@@H]4CCN4CC(F)F)nc1c23 (single isomer, unassigned) [Compound 21, 3-(10-((R or S)-1-(2-aminopyridin-3-yl)ethyl)-2-(((S)-1-(2,2-difluoroethyl)azetidin-2-yl)methoxy)-4-fluoro-9,10-dihydro-8H-7-oxa-1,3,6,10-tetraazacyclohepta[de]naphthalen-5-yl)-5-chloro-4-cyclopropylphenol]
9 | 3 | 11 | 290 | CC(c1cccnc1N)N1CCOc2nc(-c3cc(O)cc(F)c3C3CC3)c(F)c3nc(OC[C@@H]4CCN4CC(F)F)nc1c23 (single isomer, unassigned) [Compound 24, 3-(10-((R or S)-1-(2-aminopyridin-3-yl)ethyl)-2-(((S)-1-(2,2-difluoroethyl)azetidin-2-yl)methoxy)-4-fluoro-9,10-dihydro-8H-7-oxa-1,3,6,10-tetraazacyclohepta[de]naphthalen-5-yl)-4-cyclopropyl-5-fluorophenol]
10 | 886 | > 1000 | > 1000 | C[C@H](c1cccnc1N)N1CCOc2nc(-c3c(C(F)(F)F)ccc4[nH]ncc34)c(F)c3nc(OC[C@@]45CCCN4C[C@H](F)C5)nc1c23 (single isomer, unassigned) [Compound 26, 3-((1R or 1S)-1-(4-fluoro-2-(((2R,7aS)-2-fluorotetrahydro-1H-pyrrolizin-7a(5H)-yl)methoxy)-5-(5-(trifluoromethyl)-1H-indazol-4-yl)-8,9-dihydro-10H-7-oxa-1,3,6,10-tetraazacyclohepta[de]naphthalen-10-yl)ethyl)pyridin-2-amine]
11 | 405 | > 1000 | > 1000 | CC(c1cccnc1N)N1CCOc2nc(-c3cc(O)cc(Cl)c3C3CC3)c(F)c3nc(OC[C@@H]4CCCN4C)nc1c23 (single isomer, unassigned) [Compound 31, 3-(10-((R or S)-1-(2-aminopyridin-3-yl)ethyl)-4-fluoro-2-(((S)-1-methylpyrrolidin-2-yl)methoxy)-9,10-dihydro-8H-7-oxa-1,3,6,10-tetraazacyclohepta[de]naphthalen-5-yl)-5-chloro-4-cyclopropylphenol]
12 | 3 | 6 | 50 | CC(c1cccnc1N)N1CCOc2nc(-c3cc(O)cc(Cl)c3C3CC3)c(F)c3nc(OC[C@@H]4CCCN4C)nc1c23 (single isomer, unassigned) [Compound 32, 3-(10-((R or S)-1-(2-aminopyridin-3-yl)ethyl)-4-fluoro-2-(((S)-1-methylpyrrolidin-2-yl)methoxy)-9,10-dihydro-8H-7-oxa-1,3,6,10-tetraazacyclohepta[de]naphthalen-5-yl)-5-chloro-4-cyclopropylphenol]
13 | > 100 | – | – | Cc1cc(N)cc(-c2nc3c4c(nc(OC[C@@]56CCCN5C[C@H](F)C6)nc4c2F)N(C(C)c2cccnn2)CCO3)c1C(F)(F)F (single isomer, unassigned) [Compound 128, 3-(4-fluoro-2-(((2R,7aS)-2-fluorotetrahydro-1H-pyrrolizin-7a(5H)-yl)methoxy)-10-((R or S)-1-(pyridazin-3-yl)ethyl)-9,10-dihydro-8H-7-oxa-1,3,6,10-tetraazacyclohepta[de]naphthalen-5-yl)-5-methyl-4-(trifluoromethyl)aniline]
